The text below walks through data of patent US20090098096A1, “AGENT FOR CORRECTING STRESS-INDUCING NEURO-MEDIATOR, NEURO-ENDOCRINE AND METABOLIC DISTURBANCES AND METHOD FOR PREVENTING AND TREATING CONCOMITANT PATHOLOGICAL CONDITIONS” (priority 2005, published 2009).

Test [1] deals with GABAA-receptor complex. Put plainly: pharmacological profiling on convulsive and comatose models. On the set-up: species or system mice. The conditions noted are these: mouse, in vivo. From the text:
Particularly, the evaluation of the GABA-effecting component in the mechanism of action of the peptidic composition “Deltaran” based on FDSIP has been performed using the “pharmacological profiling” method in animals (mice). […] Also evidence has been found for a modulation of the barbiturate binding site of the GABA-benzodiazepine-ionophore-receptor complex by Deltaran and DSIP and data have been obtained concerning regulatory effect on chloride ionophore. The regulatory influences are probably realized via the peptide fragment of the GABA-benzodiazepine-ionophore-receptor complex (15).

The test system of test [2] is lipids of various biological membranes (synaptosome, mitochondrial, erythrocyte and other). Put plainly: peroxidation of lipids of biological membranes. In kind it is biochemical. The conditions noted are these: by modulation of the activity of antioxidant enzymes. From the text: The direct effect of the peptide on different cell membrane types was shown which may provide an additional normalizing cell functions effect. Particularly FDSIP may provide a stabilizing effect to the mitochondrial cell apparatus that also is capable of reducing cell damage by normalizing the cell respiration processes, which has been shown by us in experiments.

Test [3] concerns mitochondrial respiratory chain. Put plainly: mitochondrial respiratory chain and oxidative phosphorylation on rat brain preparations. In kind it is biochemical. The text has this:
DSIP and its related peptides play a unique role in the maintenance of the structural-metabolic homeostasis not only on the level of different organs and tissues but also on the sub-cellular level of the organism. […] Such a decrease of rigidity of biological membranes enables the normalization of membrane functions, that have been disturbed by manifestations of the metabolic syndrome, such as hypertonic disease, hyperinsulinemia, misbalance of the endocrinal system, aging, etc.

Test [4] concerns antioxidant systems of the liver, the brain and the blood. The conditions noted are these: under normal and under stress conditions; cited from earlier work.
The subject of test [5] is plasma membranes of human blood cells (erythrocytes and thrombocytes) and synaptosomal membranes (mice brain). The conditions noted are these: on the surface and internal non-polar region; cited from earlier work.

Where no end group is shown, it is not given here.

As to “WAGGDASGE [DSIP, endogenous nonapeptide, delta-sleep inducing peptide]”, in test [1], the “barbiturate binding site of the GABA-benzodiazepine-ionophore-receptor complex” value is “modulation”. For the same sequence, the “action on the peroxidation of lipids of various biological membranes” value in test [2] is “inhibitory and preventive action”. Moreover, in test [3], the “efficacy of the oxidative phosphorylation” value is “significant increase”. For the same sequence, the “capacity of the antioxidant systems of the liver, the brain and the blood” value in test [4] was “credibly increases”. The “mobility of structural membrane domains” value in test [5] was “increased mobility”.
